From ChEMBL document CHEMBL5046255, “Design and synthesis of dual inhibitors targeting snail and histone deacetylase for the treatment of solid tumour cancer” (Eur J Med Chem, 2022)
pIC50, pKd: −log10 of the molar value. Active and inactive are the calls of the source. The rule behind the calls is not given here.

Key:
[1] = Tmax in Sprague-Dawley rat at 10 mg/kg, po measured up to 24 hrs by LC-MS/MS analysis; type: ADME, organism-based; settings: in vivo
Histone deacetylase 4 = Histone deacetylase 4 (Homo sapiens, UniProt P56524); assay: Inhibition of HDAC4 (unknown origin) using Boc-Lys(TFA)-AMC as fluorogenic substrate incubated for 30 mins by fluorescence based assay
MDA-MB-435 = assay: Antiproliferative activity against human MDA-MB-435 cells assessed as growth inhibition incubated for 72 hrs by luminescence assay; type: functional
HCT-116 [2] = assay: Antiproliferative activity against human HCT-116 cells assessed as growth inhibition incubated for 72 hrs by luminescence assay; type: functional
MOLT-4 = assay: Antiproliferative activity against human MOLT-4 cells assessed as growth inhibition incubated for 72 hrs by luminescence assay; type: functional
MCF7 = assay: Antiproliferative activity against human MCF7 cells assessed as growth inhibition incubated for 72 hrs by luminescence assay; type: functional
[3] = Cmax in Sprague-Dawley rat at 1 mg/kg, iv measured up to 24 hrs by LC-MS/MS analysis; type: ADME, organism-based; set-up: route intravenous, dose 1 mg/kg, time <=24; settings: in vivo
[4] = Metabolic stability in dog liver microsomes assessed as intrinsic clearance incubated for 10 mins by LC-MS/MS analysis; type: ADME, Canis lupus familiaris, Microsome; settings: read-out: CLH
[5] = Metabolic stability in human liver microsomes assessed as intrinsic clearance incubated for 10 mins by LC-MS/MS analysis; type: ADME, Microsome; settings: read-out: CLH
[6] = Metabolic stability in rat liver microsomes assessed as intrinsic clearance incubated for 10 mins by LC-MS/MS analysis; type: ADME, Microsome; settings: read-out: CLH
A549 = assay: Antiproliferative activity against human A549 cells assessed as growth inhibition incubated for 72 hrs by luminescence assay; type: functional
M14 = assay: Antiproliferative activity against human M14 cells assessed as growth inhibition incubated for 72 hrs by luminescence assay; type: functional
[7] = Binding affinity to SNAI1 (unknown origin) assessed as dissociation constant; set-up: species or system Homo sapiens
HOP-92 = assay: Antiproliferative activity against human HOP-92 cells assessed as growth inhibition incubated for 72 hrs by luminescence assay; type: functional
UACC-257 = assay: Antiproliferative activity against human UACC-257 cells assessed as growth inhibition incubated for 72 hrs by luminescence assay; type: functional
OVCAR-8 = assay: Antiproliferative activity against human OVCAR-8 cells assessed as growth inhibition incubated for 72 hrs by luminescence assay; type: functional
HCT-116 [8] = assay: Antiproliferative activity against human HCT-116 cells assessed as cell viability at 1 uM incubated for 72 hrs by luminescence assay; type: functional, cell-based; settings: HCT-116, 72 h
SN12C = assay: Antiproliferative activity against human SN12C cells assessed as growth inhibition incubated for 72 hrs by luminescence assay; type: functional
OVCAR-4 = assay: Antiproliferative activity against human OVCAR-4 cells assessed as growth inhibition incubated for 72 hrs by luminescence assay; type: functional
[9] = Metabolic stability in dog plasma assessed as parent compound remaining at 100 uM measured after 2 hrs by LC-MS/MS analysis; type: ADME, cell-free, Canis lupus familiaris; settings: read-out: Stability
EKVX = assay: Antiproliferative activity against human EKVX cells assessed as growth inhibition incubated for 72 hrs by luminescence assay; type: functional
UO-31 = assay: Antiproliferative activity against human UO-31 cells assessed as growth inhibition incubated for 72 hrs by luminescence assay; type: functional
COLO 205 = assay: Antiproliferative activity against human COLO 205 cells assessed as growth inhibition incubated for 72 hrs by luminescence assay; type: functional
HCC 2998 = assay: Antiproliferative activity against human HCC 2998 cells assessed as growth inhibition incubated for 72 hrs by luminescence assay; type: functional
[10] = target: Histone deacetylase (Homo sapiens) (UniProt Q13547+O15379+Q9UBN7+Q92769+Q9UQL6+Q8WUI4+Q9BY41+Q96DB2+P56524+Q9UKV0+Q969S8); assay: Inhibition of HDAC in human HCT-116 cells assessed as increase in Ac-H4 expression at 50 nM measured after 24 hrs by western blot analysis; type: cell-based
Hs-578T = assay: Antiproliferative activity against human Hs-578T cells assessed as growth inhibition incubated for 72 hrs by luminescence assay; type: functional
SF-539 = assay: Antiproliferative activity against human SF-539 cells assessed as growth inhibition incubated for 72 hrs by luminescence assay; type: functional
[11] = Oral bioavailability in Sprague-Dawley rat at 10 mg/kg measured up to 24 hrs by LC-MS/MS analysis; type: ADME, organism-based; settings: in vivo
RXF 393 = assay: Antiproliferative activity against human RXF 393 cells assessed as growth inhibition incubated for 72 hrs by luminescence assay; type: functional
[12] = Clearance in Sprague-Dawley rat at 1 mg/kg, iv measured up to 24 hrs by LC-MS/MS analysis; type: ADME, organism-based; settings: in vivo
SK-MEL-5 = assay: Antiproliferative activity against human SK-MEL-5 cells assessed as growth inhibition incubated for 72 hrs by luminescence assay; type: functional
[13] = Metabolic stability in rat liver microsomes assessed as half life incubated for 10 mins by LC-MS/MS analysis; type: ADME, Microsome
UACC-62 = assay: Antiproliferative activity against human UACC-62 cells assessed as growth inhibition incubated for 72 hrs by luminescence assay; type: functional
ACHN = assay: Antiproliferative activity against human ACHN cells assessed as growth inhibition incubated for 72 hrs by luminescence assay; type: functional
[14] = Metabolic stability in human plasma assessed as half life at 100 uM measured upto 120 mins by LC-MS/MS analysis; type: ADME, cell-free
SNB-75 = assay: Antiproliferative activity against human SNB-75 cells assessed as growth inhibition incubated for 72 hrs by luminescence assay; type: functional
NCI-H23 = assay: Antiproliferative activity against human NCI-H23 cells assessed as growth inhibition incubated for 72 hrs by luminescence assay; type: functional
Malme-3M = assay: Antiproliferative activity against human Malme-3M cells assessed as growth inhibition incubated for 72 hrs by luminescence assay; type: functional
SF-268 = assay: Antiproliferative activity against human SF-268 cells assessed as growth inhibition incubated for 72 hrs by luminescence assay; type: functional
[15] = Metabolic stability in human liver microsomes assessed as half life incubated for 10 mins by LC-MS/MS analysis; type: ADME, Microsome
KM12 = assay: Antiproliferative activity against human KM12 cells assessed as growth inhibition incubated for 72 hrs by luminescence assay; type: functional
NCI/ADR-RES = assay: Antiproliferative activity against human NCI/ADR-RES cells assessed as growth inhibition incubated for 72 hrs by luminescence assay; type: functional
T47D = assay: Antiproliferative activity against human T47D cells assessed as growth inhibition incubated for 72 hrs by luminescence assay; type: functional
U-251 = assay: Antiproliferative activity against human U-251 cells assessed as growth inhibition incubated for 72 hrs by luminescence assay; type: functional
NCI-H460 = assay: Antiproliferative activity against human NCI-H460 cells assessed as growth inhibition incubated for 72 hrs by luminescence assay; type: functional
NCI-H522 = assay: Antiproliferative activity against human NCI-H522 cells assessed as growth inhibition incubated for 72 hrs by luminescence assay; type: functional

Histone deacetylase 4, sequence (P56524 whole entry): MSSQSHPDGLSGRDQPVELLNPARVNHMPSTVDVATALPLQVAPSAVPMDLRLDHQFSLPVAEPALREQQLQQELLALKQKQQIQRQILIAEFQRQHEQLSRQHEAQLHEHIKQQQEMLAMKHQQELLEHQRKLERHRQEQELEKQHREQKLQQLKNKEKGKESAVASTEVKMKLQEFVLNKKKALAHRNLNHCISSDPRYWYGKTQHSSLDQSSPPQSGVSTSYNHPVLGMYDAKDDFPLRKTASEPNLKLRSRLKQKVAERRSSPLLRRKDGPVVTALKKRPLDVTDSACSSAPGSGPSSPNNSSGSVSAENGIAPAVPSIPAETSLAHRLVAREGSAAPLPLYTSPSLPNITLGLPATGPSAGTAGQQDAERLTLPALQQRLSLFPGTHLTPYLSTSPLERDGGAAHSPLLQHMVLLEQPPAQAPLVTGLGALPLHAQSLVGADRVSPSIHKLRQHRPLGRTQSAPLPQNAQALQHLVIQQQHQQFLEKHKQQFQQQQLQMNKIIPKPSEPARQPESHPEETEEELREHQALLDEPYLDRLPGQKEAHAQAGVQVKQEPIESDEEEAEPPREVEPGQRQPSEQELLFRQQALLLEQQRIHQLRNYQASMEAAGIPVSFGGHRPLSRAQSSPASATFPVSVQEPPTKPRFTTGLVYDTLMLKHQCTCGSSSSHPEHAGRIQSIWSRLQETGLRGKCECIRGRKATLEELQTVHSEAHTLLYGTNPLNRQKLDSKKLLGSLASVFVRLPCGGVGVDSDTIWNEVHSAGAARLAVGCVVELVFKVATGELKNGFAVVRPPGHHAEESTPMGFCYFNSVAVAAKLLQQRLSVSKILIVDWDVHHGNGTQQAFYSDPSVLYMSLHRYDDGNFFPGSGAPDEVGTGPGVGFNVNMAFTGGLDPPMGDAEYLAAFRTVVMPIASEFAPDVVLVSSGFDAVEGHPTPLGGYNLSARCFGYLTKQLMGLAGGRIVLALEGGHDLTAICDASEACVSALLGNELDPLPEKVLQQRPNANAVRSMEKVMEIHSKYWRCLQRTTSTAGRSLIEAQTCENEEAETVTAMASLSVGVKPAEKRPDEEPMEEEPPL

With `Cc1cc(Nc2nc(SCc3ccc(C(=O)Nc4ccc(F)cc4N)cc3)nn3cccc23)n[nH]1` as the molecule, how does the Tmax [1] read?
The Tmax was 4 h.

And the pIC50 (Histone deacetylase 4)?
The pIC50 was less than 5.00.

What about the GI50 (MDA-MB-435) of the same molecule?
The GI50 was 36.1 nM.

What about the GI50 (HCT-116 [2]) of the same molecule?
Its GI50 is 494 nM.

What about the GI50 (MOLT-4) of the same molecule?
The GI50 was 508 nM.

And the GI50 (MCF7)?
The GI50 was 51.8 nM.

What about the Cmax [3] of the same molecule?
The Cmax was 144 ng/mL.

And the microsomal CLint [4]?
The microsomal CLint was 26.6 µL/min/mg.

What about the microsomal CLint [5] of the same molecule?
Its microsomal CLint is 20.9 µL/min/mg.

What about the microsomal CLint [6] of the same molecule?
The microsomal CLint was 110 µL/min/mg.

What about the GI50 (A549) of the same molecule?
The GI50 was 886 nM.

And the GI50 (M14)?
The GI50 was 289 nM.

And the pKd [7]?
Its pKd is 6.74.

What about the GI50 (HOP-92) of the same molecule?
Its GI50 is 3680 nM.

And the GI50 (UACC-257)?
The GI50 was 3690 nM.

And the GI50 (OVCAR-8)?
Its GI50 is 483 nM.

And the pIC50 (HCT-116 [8])?
The pIC50 was 7.12.

And the GI50 (SN12C)?
The GI50 was 1250 nM.

What about the GI50 (OVCAR-4) of the same molecule?
Its GI50 is 1660 nM.

What about the remaining at 2 h, 100 µM [9] of the same molecule?
Its remaining at 2 h, 100 µM is 85.7%.

What about the GI50 (EKVX) of the same molecule?
Its GI50 is 919 nM.

And the GI50 (UO-31)?
Its GI50 is 1330 nM.

And the GI50 (COLO 205)?
Its GI50 is 296 nM.

What about the GI50 (HCC 2998) of the same molecule?
The GI50 was 677 nM.

And the Activity [10]?
The Activity was “Active”.

And the GI50 (Hs-578T)?
Its GI50 is 429 nM.

And the GI50 (SF-539)?
The GI50 was 282 nM.

And the F [11]?
The F was 7.3%.

What about the GI50 (RXF 393) of the same molecule?
The GI50 was 301 nM.

And the clearance [12]?
The clearance was 24.2 mL/min/kg.

And the GI50 (SK-MEL-5)?
The GI50 was 334 nM.

What about the half-life [13] of the same molecule?
Its half-life is 0.21 h.

What about the GI50 (UACC-62) of the same molecule?
The GI50 was 347 nM.

What about the GI50 (ACHN) of the same molecule?
Its GI50 is 1240 nM.

And the half-life at 100 µM [14]?
The half-life at 100 µM was 5.62 h.

And the GI50 (SNB-75)?
The GI50 was 198 nM.

And the GI50 (NCI-H23)?
Its GI50 is 603 nM.

And the GI50 (Malme-3M)?
The GI50 was 1830 nM.

What about the GI50 (SF-268) of the same molecule?
Its GI50 is 1120 nM.

And the half-life [15]?
Its half-life is 1.1 h.

And the GI50 (KM12)?
The GI50 was 284 nM.

And the GI50 (NCI/ADR-RES)?
The GI50 was 1980 nM.

And the GI50 (T47D)?
Its GI50 is 1120 nM.

What about the GI50 (U-251) of the same molecule?
Its GI50 is 343 nM.

And the GI50 (NCI-H460)?
Its GI50 is 395 nM.

What about the GI50 (NCI-H522) of the same molecule?
Its GI50 is 48.8 nM.
